Experimental data: ChEMBL document CHEMBL1201862, “PubChem BioAssay data set” (2004)
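Step 1: Grow cells in 96-well plates. Step 2: Expose to compound for 48 hours at 5 concentrations. Step 3: Interpolate endpoints linearly; if unreached, use highest concentration. GI50 = concentration required for 50% inhibition of growth.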 The source made the active and inactive calls. No stated cut-off is given here; in the data, active = GI50 up to about 1.1 µM and inactive = higher.

Legend:
Experiment in all cases: NCI-60 cell line screen, 48 h
A549 = system: A549
SK-MEL-5 = system: SK-MEL-5
SF-539 = system: SF-539
Hs-578T = system: Hs-578T
IGROV-1 = system: IGROV-1
U-251 = system: U-251
DU-145 = system: DU-145
SK-MEL-2 = system: SK-MEL-2
EKVX = system: EKVX
K562 = system: K562
HL-60 = system: HL-60
SK-OV-3 = system: SK-OV-3
RPMI-8226 = system: RPMI-8226
Malme-3M = system: Malme-3M
OVCAR-4 = system: OVCAR-4
HCC 2998 = system: HCC 2998
NCI-H522 = system: NCI-H522

Measured: GI50

CCOC(=O)c1cc2c([nH]1)c(OC(C)=O)cc1c2ccn1Cc1ccccc1
inactive: A549 > 100 µM | SK-MEL-5 > 100 µM | SF-539 > 100 µM | Hs-578T > 100 µM | IGROV-1 > 100 µM | U-251 > 100 µM | DU-145 > 100 µM | SK-MEL-2 > 100 µM | EKVX 99.5 µM | K562 > 100 µM | HL-60 > 100 µM | SK-OV-3 > 100 µM | RPMI-8226 > 100 µM | Malme-3M > 100 µM | OVCAR-4 > 100 µM | HCC 2998 > 100 µM

C=C1C[C@@H](O)[C@@H](Br)C(C)(C)[C@@]12C=CC(=O)CC2
inactive: A549 > 100 µM | SK-MEL-5 > 100 µM | SF-539 > 100 µM | NCI-H522 > 100 µM | Hs-578T > 100 µM | IGROV-1 3.58 µM | U-251 > 100 µM | DU-145 > 100 µM | SK-MEL-2 > 78.5 µM | K562 > 100 µM | HL-60 > 100 µM | SK-OV-3 > 100 µM | RPMI-8226 > 100 µM | Malme-3M > 100 µM | OVCAR-4 > 100 µM | HCC 2998 > 78.7 µM

[N-]=[N+]=Nc1cc(=O)[nH]nc1-c1ccccc1
inactive: A549 > 100 µM | SF-539 > 100 µM | NCI-H522 > 100 µM | Hs-578T > 100 µM | IGROV-1 > 100 µM | U-251 > 100 µM | DU-145 > 100 µM | EKVX > 100 µM | K562 > 100 µM | HL-60 > 100 µM | SK-OV-3 > 100 µM | RPMI-8226 > 100 µM | Malme-3M > 100 µM | OVCAR-4 > 100 µM | HCC 2998 > 100 µM

N=C/N=C/C(=S)O[C@@H]1C(=O)N2CCC[C@@]23CCCC[C@@H]13
inactive: A549 > 12.5 µM | SK-MEL-5 > 12.5 µM | NCI-H522 > 12.5 µM | Hs-578T > 12.5 µM | IGROV-1 > 12.5 µM | U-251 > 12.5 µM | DU-145 > 12.5 µM | SK-MEL-2 > 12.5 µM | EKVX > 12.5 µM | K562 > 12.5 µM | HL-60 > 12.5 µM | SK-OV-3 > 12.5 µM | RPMI-8226 > 12.5 µM | Malme-3M > 12.5 µM | OVCAR-4 > 12.5 µM | HCC 2998 > 12.5 µM

COc1ccc(N2C(=O)C3c4[nH]c5cccc(Cl)c5c4C4CCC(C(C)(C)C)CC4C3C2=O)cc1 (stereo unspecified)
inactive: A549 > 100 µM | SK-MEL-5 > 100 µM | SF-539 64.7 µM | NCI-H522 > 100 µM | Hs-578T 21.9 µM | IGROV-1 > 100 µM | U-251 39.2 µM | DU-145 > 100 µM | SK-MEL-2 94.6 µM | EKVX > 100 µM | K562 > 100 µM | SK-OV-3 64.9 µM | RPMI-8226 > 100 µM | Malme-3M > 100 µM | OVCAR-4 > 100 µM | HCC 2998 > 100 µM

Cn1cc2c3ccccc3nc-2c2ccccc21 [ISOCRYPTOLEPINE]
inactive: A549 2.17 µM | SK-MEL-5 1.7 µM | SF-539 1.72 µM | NCI-H522 1.41 µM | Hs-578T 2.3 µM | IGROV-1 1.63 µM | U-251 2.42 µM | DU-145 2.31 µM | SK-MEL-2 1.91 µM | K562 1.94 µM | HL-60 2.04 µM | SK-OV-3 1.99 µM | RPMI-8226 1.53 µM | Malme-3M 2.28 µM | OVCAR-4 1.92 µM | HCC 2998 1.6 µM

Cc1cc2c(cc1Cl)SC(N/N=C(\N)c1ccc(Cl)cc1)=NS2(=O)=O
inactive: A549 96.6 µM | SK-MEL-5 > 100 µM | SF-539 32.3 µM | NCI-H522 30.6 µM | Hs-578T 48.5 µM | IGROV-1 31 µM | U-251 44.7 µM | DU-145 > 100 µM | EKVX 72.9 µM | K562 44 µM | HL-60 40.5 µM | SK-OV-3 > 100 µM | Malme-3M 38.1 µM | OVCAR-4 75.2 µM | HCC 2998 40.6 µM

CCOC(=O)c1nc2c(Cl)c3ncccc3cc2[nH]c1=O
inactive: A549 28.4 µM | SK-MEL-5 9.04 µM | SF-539 34.8 µM | NCI-H522 34.4 µM | Hs-578T 31.7 µM | IGROV-1 53.5 µM | U-251 23 µM | DU-145 > 100 µM | SK-MEL-2 22.4 µM | EKVX 9.08 µM | K562 26.1 µM | HL-60 14.2 µM | SK-OV-3 > 100 µM | Malme-3M > 100 µM | OVCAR-4 49.1 µM | HCC 2998 19.6 µM
